For 19 compounds, IC50 results are on record in US20230312583A1, “1H-IMIDAZO [4,5-H] QUINAZOLINE COMPOUND AS NOVEL SELECTIVE FLT3 INHIBITORS” (SHENGKE PHARMACEUTICALS (JIANGSU) LTD., priority 2020, published 2023).

Format in all cases: biochemical
Holding throughout (conditions): 10 μM ATP

In one assay the target is CDK2/cyclin E (Homo sapiens (Human), UniProt P24941). In words: Radiometric 33P-ATP kinase inhibition assay, CDK2/cyclin E. On the procedure: (§1) Reactions were carried out in the presence of 10 μM ATP.
(§2) Procedures: • 1. Compounds were prepared in freshly prepared reaction buffers containing 20 mM HEPES (pH 7.5), 10 mM MgCl2, 1 mM EGTA, 0.01% Brij35, 0.02 mg/ml, BSA, 0.1 mM Na3VO4, 2 mM DTT, and 1% DMSO. • 2. […] Kinase such as 10 ng of recombinant CDK4/cyclin D1 (Life Technologies PV4204) diluted in a kinase buffer (20 mM Tris pH7.5, 10 mM MgCl2, 0.01% NP-40, 2 mM DTT), and incubated at room temperature for 30 minutes together with indicated concentration of inhibitors. • 4. Compounds in DMSO were added into the kinase reaction mixture utilizing acoustic technology (Echo550). • 5. 33P-ATP (specific activity 0.01 μCi/μl final) was added into the reaction mixture to initiate the reaction. • 6. The reaction mixture was incubated for 120 minutes at room temperature. • 7. […] Filters were extensively washed with 0.75% phosphoric acid. • 9. The radioactive phosphorylated substrate remaining on the filter paper was measured.
(§3) Kinase activity data were expressed as the percent remaining kinase activity in test samples compared to vehicle (dimethyl sulfoxide) reactions. IC50 values and curve fits were obtained using Prism4 Software (GraphPad).

The target in a further assay is CDK4/cyclin D1 (Homo sapiens (Human), UniProt P11802). The assay can be described thus: Radiometric 33P-ATP kinase inhibition assay, CDK4/cyclin. As for the experimental part: as §1, §2, §3
Chain of CDK4/cyclin D1 (P11802 whole entry): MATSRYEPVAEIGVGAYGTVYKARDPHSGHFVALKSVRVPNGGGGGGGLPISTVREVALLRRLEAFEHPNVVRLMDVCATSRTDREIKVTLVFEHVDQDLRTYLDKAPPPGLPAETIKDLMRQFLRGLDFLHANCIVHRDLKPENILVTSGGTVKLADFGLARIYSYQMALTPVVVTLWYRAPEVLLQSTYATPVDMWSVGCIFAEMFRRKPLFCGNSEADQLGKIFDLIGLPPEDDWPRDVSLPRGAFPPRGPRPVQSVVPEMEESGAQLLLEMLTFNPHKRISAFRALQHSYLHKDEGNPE
Chain of CDK4/cyclin D1 (P24385 whole entry partner): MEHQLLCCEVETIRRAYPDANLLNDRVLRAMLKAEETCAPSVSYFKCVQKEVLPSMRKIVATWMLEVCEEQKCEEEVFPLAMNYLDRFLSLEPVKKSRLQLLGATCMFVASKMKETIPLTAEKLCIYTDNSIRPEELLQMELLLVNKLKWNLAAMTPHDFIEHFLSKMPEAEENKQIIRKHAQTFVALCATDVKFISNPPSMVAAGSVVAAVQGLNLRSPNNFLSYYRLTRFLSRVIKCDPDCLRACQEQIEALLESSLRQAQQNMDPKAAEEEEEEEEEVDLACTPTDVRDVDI
The next assay has as its target C-Klt (Homo sapiens (Human), UniProt P10721). The assay can be described thus: Radiometric 33P-ATP kinase inhibition assay, C-Klt. As for the experimental part: as §1, §2, §3
Another assay concerns the target CDK6/cyclin D1 (Homo sapiens (Human), UniProt Q00534). In words: Radiometric 33P-ATP kinase inhibition assay, CDK6/cyclin D1. As for the experimental part: as §1, §2, §3
Another assay has as its target CDK1/cyclin B (Homo sapiens (Human), UniProt P06493). In words: Radiometric 33P-ATP kinase inhibition assay, CDK1/cyclin B. As for the experimental part:
as §1, §2, §3

Broadly, the IC50 is the concentration that inhibits the measured activity by half. Read a high IC50 as lower potency.

Chain of C-Klt (P10721 26-976): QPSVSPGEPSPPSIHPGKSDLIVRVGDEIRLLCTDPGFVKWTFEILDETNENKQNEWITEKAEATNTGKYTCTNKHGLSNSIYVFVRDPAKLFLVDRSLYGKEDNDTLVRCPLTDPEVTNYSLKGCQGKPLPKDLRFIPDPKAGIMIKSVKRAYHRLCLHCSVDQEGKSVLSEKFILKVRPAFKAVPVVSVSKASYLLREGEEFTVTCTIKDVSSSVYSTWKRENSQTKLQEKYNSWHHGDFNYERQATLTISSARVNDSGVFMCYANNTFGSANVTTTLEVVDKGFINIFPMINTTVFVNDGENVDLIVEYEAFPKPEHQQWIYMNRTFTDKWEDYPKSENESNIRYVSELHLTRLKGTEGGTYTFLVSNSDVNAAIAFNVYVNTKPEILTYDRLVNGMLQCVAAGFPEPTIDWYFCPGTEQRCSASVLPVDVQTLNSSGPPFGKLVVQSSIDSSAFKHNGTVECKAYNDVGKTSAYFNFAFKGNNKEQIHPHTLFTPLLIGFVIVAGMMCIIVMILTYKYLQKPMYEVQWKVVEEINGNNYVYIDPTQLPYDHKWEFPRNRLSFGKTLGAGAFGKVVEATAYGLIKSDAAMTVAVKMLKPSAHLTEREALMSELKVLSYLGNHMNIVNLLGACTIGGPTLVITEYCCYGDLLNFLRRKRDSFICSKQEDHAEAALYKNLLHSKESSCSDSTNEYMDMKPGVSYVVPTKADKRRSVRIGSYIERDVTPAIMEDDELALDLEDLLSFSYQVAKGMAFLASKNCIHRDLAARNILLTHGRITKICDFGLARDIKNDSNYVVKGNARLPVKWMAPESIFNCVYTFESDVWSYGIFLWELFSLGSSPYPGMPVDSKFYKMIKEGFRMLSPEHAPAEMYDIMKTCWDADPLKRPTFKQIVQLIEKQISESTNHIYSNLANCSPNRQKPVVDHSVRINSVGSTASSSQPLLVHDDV
Chain of CDK1/cyclin B (P06493 whole entry, species assumed): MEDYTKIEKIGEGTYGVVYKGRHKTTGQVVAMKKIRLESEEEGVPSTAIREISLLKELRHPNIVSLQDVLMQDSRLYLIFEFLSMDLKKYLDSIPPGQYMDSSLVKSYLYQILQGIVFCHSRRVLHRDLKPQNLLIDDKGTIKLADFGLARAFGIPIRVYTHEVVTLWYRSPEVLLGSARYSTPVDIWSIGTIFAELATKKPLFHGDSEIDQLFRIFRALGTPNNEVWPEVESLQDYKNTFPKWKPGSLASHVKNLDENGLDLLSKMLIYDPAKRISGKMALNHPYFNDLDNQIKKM
Chain of CDK1/cyclin B (P14635 whole entry partner, species assumed): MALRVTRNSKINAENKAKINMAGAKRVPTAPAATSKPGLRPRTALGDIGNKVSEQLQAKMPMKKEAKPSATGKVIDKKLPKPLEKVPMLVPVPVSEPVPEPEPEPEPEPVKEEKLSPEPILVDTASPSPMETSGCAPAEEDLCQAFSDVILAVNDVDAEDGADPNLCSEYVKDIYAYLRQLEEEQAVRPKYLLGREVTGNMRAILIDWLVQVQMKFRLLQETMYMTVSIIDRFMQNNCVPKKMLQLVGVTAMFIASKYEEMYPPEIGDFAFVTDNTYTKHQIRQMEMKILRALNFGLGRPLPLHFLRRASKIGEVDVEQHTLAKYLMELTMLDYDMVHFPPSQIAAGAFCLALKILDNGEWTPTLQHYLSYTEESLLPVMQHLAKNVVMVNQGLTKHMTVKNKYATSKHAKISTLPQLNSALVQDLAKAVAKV
Chain of CDK6/cyclin D1 (Q00534 whole entry, species assumed): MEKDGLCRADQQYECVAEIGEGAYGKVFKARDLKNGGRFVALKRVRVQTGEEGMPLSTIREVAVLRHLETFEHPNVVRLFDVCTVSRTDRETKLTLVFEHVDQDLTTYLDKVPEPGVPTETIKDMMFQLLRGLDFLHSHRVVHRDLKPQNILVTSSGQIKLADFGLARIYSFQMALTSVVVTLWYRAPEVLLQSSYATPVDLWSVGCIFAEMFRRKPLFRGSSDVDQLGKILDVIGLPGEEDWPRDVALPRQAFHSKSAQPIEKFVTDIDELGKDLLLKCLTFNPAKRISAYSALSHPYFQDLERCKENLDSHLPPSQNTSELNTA
Chain of CDK6/cyclin D1 (P24385 whole entry partner, species assumed): as the sequence (P24385 whole entry partner) above

As for `COc1cc(Nc2ncc3ccc4ncn(C(C)C)c4c3n2)ncc1N1CCN(C)CC1` [Compound I-1], the IC50 on CDK2/cyclin E came out at 189 nM; at CDK4/cyclin D1, 61 nM; against C-Klt, 32.1 nM.

`CCN1CCN(c2cnc(Nc3ncc4ccc5ncn(C(C)C)c5c4n3)cc2OC)CC1` [Compound I-2, N-(5-(4-ethylpiperazin-1-yl)-4-methoxypyridin-2-yl)-1-isopropyl-1H-imidazo[4,5-h]quinazolin-8-amine]: the IC50 worked out at 162 nM against CDK2/cyclin E and 66.8 nM against CDK4/cyclin D1.

For `COc1cc(Nc2ncc3ccc4ncn(C(C)C)c4c3n2)ncc1N1CC2(COC2)C1` [Compound I-3], the IC50 at CDK2/cyclin E came to 46.9 nM; at CDK4/cyclin D1, 186 nM; at C-Klt it was 60.6 nM.

On to `COc1cc(Nc2ncc3ccc4ncn(C(C)C)c4c3n2)ncc1N1CC2(CNC2)C1` [Compound I-4], for which the IC50 against CDK2/cyclin E was found to be 69.5 nM; at CDK4/cyclin D1, 52.9 nM; against C-Klt, 16.6 nM.

With `COc1cc(Nc2ncc3ccc4ncn(C(C)C)c4c3n2)ncc1N1CCNC(C)(C)C1` [Compound I-5], the results for the IC50 against CDK2/cyclin E, on CDK4/cyclin D1 and against C-Klt were 483 nM, 95 nM and 25.6 nM, respectively.

In the case of `CNC1CN(c2cnc(Nc3ncc4ccc5ncn(C(C)C)c5c4n3)cc2OC)C1` [Compound I-6], the results for the IC50 against CDK2/cyclin E, against CDK4/cyclin D1 and against C-Klt were greater than 500 nM, 245 nM and 94.7 nM, respectively.

On to `CCOc1cc(Nc2ncc3ccc4ncn(C(C)C)c4c3n2)ncc1N1CCN(C)CC1` [Compound I-7], for which the IC50 against CDK2/cyclin E is greater than 500 nM; at CDK4/cyclin D1, 99.1 nM; against C-Klt it was 31.5 nM.

`CCOc1cc(Nc2ncc3ccc4ncn(C(C)C)c4c3n2)ncc1N1CCOCC1` [Compound I-8]: the results for the IC50 at CDK2/cyclin E, against CDK4/cyclin D1 and against C-Klt were greater than 500 nM, greater than 500 nM and 89.1 nM, respectively.

For the compound `CC(C)n1cnc2ccc3cnc(Nc4cc(OCCF)c(N5CC6CC(C5)N6)cn4)nc3c21` [Compound I-9], the IC50 came to 91.1 nM on CDK2/cyclin E, 39.5 nM against CDK4/cyclin D1, 15 nM on C-Klt and 22.5 nM at CDK6/cyclin D1.

On to `CC(C)n1cnc2ccc3cnc(Nc4cc(OCC5CC5)c(N5CCNCC5)cn4)nc3c21` [Compound I-10], for which the IC50 against CDK2/cyclin E was greater than 500 nM; against CDK4/cyclin D1 it was 292 nM; against CDK1/cyclin B, 451 nM; against C-Klt it was 111 nM.

In the case of `COc1cc(Nc2ncc3ccc4ncn(C(C)C)c4c3n2)ncc1N1C2CCC1CNC2` [Compound I-11], the IC50 at CDK2/cyclin E was greater than 500 nM; on CDK4/cyclin D1 it was 98.3 nM; at C-Klt, 29.8 nM.

Regarding `COc1cc(Nc2ncc3ccc4ncn(C(C)C)c4c3n2)ncc1N1CC2CCC1CN2` (stereo not shown) [Compound I-12], the IC50 against CDK2/cyclin E was 301 nM; against CDK4/cyclin D1, 66 nM; on C-Klt, 15 nM.

On CDK4/cyclin D1, `CC#CCOc1cc(Nc2ncc3ccc4ncn(C(C)C)c4c3n2)ncc1N1CCNCC1` [Compound I-13] yielded a half-maximal inhibitory concentration (IC50) of 109 nM.

As for `CC(C)n1cnc2ccc3cnc(Nc4cc(Oc5ccccc5)c(N5CCNCC5)cn4)nc3c21` [Compound I-14], the IC50 against CDK2/cyclin E was found to be 436 nM; against CDK4/cyclin D1, 46.1 nM; against C-Klt, 70.9 nM.

Consider `COc1cc(Nc2ncc3ccc4ncn(C(C)C)c4c3n2)ncc1NCC1COC(=O)N1C` (stereo not shown) [Compound I-15], for which the IC50 at CDK2/cyclin E was greater than 500 nM; against CDK4/cyclin D1, 267 nM; on C-Klt, 118 nM.

Turning to `CCOc1cc(Nc2ncc3ccc4ncn(CC)c4c3n2)ncc1N1CCN(CC)CC1` [Compound V-1, N-(4-ethoxy-5-(4-ethylpiperazin-1-yl)pyridin-2-yl)-1-ethyl-1H-imidazo[4,5-h]quinazolin-8-amine], the IC50 against CDK4/cyclin D1 worked out at 221 nM; at C-Klt, 21.3 nM.

For the compound `COc1cc(Nc2ncc3cc(C)c4ncn(C(C)C)c4c3n2)ccc1N1CCOCC1` [II-1, 1-isopropyl-N-(3-methoxy-4-morpholinophenyl)-4-methyl-1H-imidazo[4,5-h]quinazolin-8-amine], half-maximal inhibition at C-Klt (IC50) was put at 75.1 nM.

As for `CC(C)Oc1cc(Nc2ncc3ccc4ncn(C)c4c3n2)ncc1N1CCNCC1` [IV-1, N-(4-isopropoxy-5-(piperazin-1-yl)pyridin-2-yl)-1-methyl-1H-imidazo[4,5-h]quinazolin-8-amine], it took 137 nM to reach half-maximal inhibition at C-Klt (IC50).

For the compound `COc1cc(Nc2ncc3ccc4nc(C)n(C(C)C)c4c3n2)ncc1N1CCOCC1` [VI-1, 1-isopropyl-N-(4-methoxy-5-morpholinopyridin-2-yl)-2-methyl-1H-imidazo[4,5-h]quinazolin-8-amine], the IC50 on CDK2/cyclin E was found to be 89.1 nM; on CDK4/cyclin D1 it was 245 nM; against CDK1/cyclin B, 397 nM; against C-Klt it was 46 nM.
